Results as given in patent US11780821B2, “Inhibitors of fibroblast activation protein” (Praxis Biotech LLC, priority 2017, dated 2023).

What was measured:
[1] = target: T1, mouse plasma DPPIV (Mus musculus, UniProt P28843); test: DPPIV enzymatic activity in mouse plasma; format: biochemical; settings: C57BL/6 mouse plasma; H-Gly-Pro-AMC substrate
T1 construct: from tissue; host or cells: mouse plasma (C57BL/6, EDTA)
Protocol: Approximately 500 μL of whole blood from one C57BL/6 mouse was harvested into BD Microtainer® tubes (K2) EDTA (#365974, Becton Dickinson and Co.) via terminal cardiac puncture. The blood sample was immediately centrifuged at approximately 9000 g at 4° C. for 5 minutes. Plasma was separated and stored at −80° C. in aliquots of 300 μL. To assay baseline DPPIV enzymatic exopeptidase activity, 5 μL of thawed, mouse plasma was diluted (1:5) in buffer (100 mM Tris-HCl, 400 mM NaCl, 50 mM salicylic acid, 1 mM EDTA, pH 7.5) and mixed with 35 µL of the same buffer before being pre-incubated with different concentrations of 10 μL of test compounds or DMSO vehicle for 15 minutes at 37° C. in 96-well black plates (Nunc, #237108). After pre-incubation, 50 μL of 200 μM dipeptide substrate H-Gly-Pro-AMC (Bachem, #L-1225) was added to the mixture. The assay was performed for 1 hour at 37° C. 7-Amino-4-Methylcoumarin (AMC) release was detected measuring fluorescence at an excitation wavelength of 360 nm and an emission wavelength of 460 nm using a Multifunction Microplate Reader (Synergy 4, Biotek). All measurements were carried out at least in duplicate.

[2] = Intravenous and oral bioavailability in mice; format: in vivo
Protocol: The pharmacokinetic properties of exemplary test compounds were assayed after administration of an intravenous (IV) 2 mg/kg or oral (PO) 10 mg/kg single dose in mice. Exemplary test compounds were formulated at 0.4 and 1 mg/ml in a vehicle containing Poly-Ethylene Glycol 200 (PEG200; Cat. No. #P3015, Sigma Aldrich) and distilled water (dH2O) (50/50, v/v) as dosing solutions for intravenous and oral administration, respectively.
C57BL/6j and Balb/c mice, approximately 8-10 weeks old, were obtained from the vivarium Fundación Ciencia & Vida Chile (Santiago, Chile) and maintained in a temperature-controlled room with 12/12 hr light/dark schedule with food and water ad libitum. Animals were acclimated for a minimum period of 4 days upon arrival at the testing facility.
On the day of study, mice were weighed and identified by marking the tail with numbers using a non-toxic permanent marker for designation into the experimental groups (n=3 per group). Each mouse in the IV dosing groups received a systemic bolus of 2 mg/kg dosing solution via the caudal vein.
Non-dosed mice were used to collect samples of zero time points. […] Blood samples were centrifuged immediately at 9,000 g at 4° C. for 5 min and the plasma was separated.
The plasma samples were analyzed by QTRAP 4500 triple quadrupole mass spectrometer (Applied Biosystems SCIEX) in positive or negative ion mode depending on the tested compound and interfaced with an ekspert ultraLC 100-XL UPLC System (eksigent) to determine the concentration of the exemplary test compound. […] The precipitated samples were centrifuged at 6,100 g for 30 min at 4° C. Following centrifugation, an aliquot of each supernatant was transferred into a clean sample vial and diluted with two volumes of aqueous mobile phase (0.2% formic acid in water). Samples were injected onto a reverse phase analytical column (YMC Triart C18; 2.0×50 mm; 1.9 μm; YMC CO) and eluted with a gradient of 0.1 or 0.2% formic acid in Acetonitrile. Test compound and internal standard were monitored by a multiple reaction monitoring (MRM) experiment using Analyst software (v1.6.2, Applied Biosystems SCIEX). Quantitation was conducted using MultiQuant software (v2.1, Applied Biosystems SCIEX) and the resulting calibration curve was fitted with a linear or quadratic regression and 1/x weighting.
IV and PO PK parameters were calculated from the concentration-time data using Phoenix WinNonlin software (v6.4, Certara, Princeton, N.J.) by noncompartmental analysis. Area under the concentration-time curve (AUClast) was estimated using a log-linear trapezoidal method, from the dosing time to the last measurable concentration.

[3] = target: T2, recombinant mouse FAPα (rmFAPα) (Mus musculus, UniProt P97321); test: FAPα enzymatic exopeptidase (dipeptidase) activity assay; format: biochemical; settings: 1 μM test compound; Z-Gly-Pro-AMC substrate
T2 construct: purchased R&S system (so in the source)
T2 sequence (P97321 1-761): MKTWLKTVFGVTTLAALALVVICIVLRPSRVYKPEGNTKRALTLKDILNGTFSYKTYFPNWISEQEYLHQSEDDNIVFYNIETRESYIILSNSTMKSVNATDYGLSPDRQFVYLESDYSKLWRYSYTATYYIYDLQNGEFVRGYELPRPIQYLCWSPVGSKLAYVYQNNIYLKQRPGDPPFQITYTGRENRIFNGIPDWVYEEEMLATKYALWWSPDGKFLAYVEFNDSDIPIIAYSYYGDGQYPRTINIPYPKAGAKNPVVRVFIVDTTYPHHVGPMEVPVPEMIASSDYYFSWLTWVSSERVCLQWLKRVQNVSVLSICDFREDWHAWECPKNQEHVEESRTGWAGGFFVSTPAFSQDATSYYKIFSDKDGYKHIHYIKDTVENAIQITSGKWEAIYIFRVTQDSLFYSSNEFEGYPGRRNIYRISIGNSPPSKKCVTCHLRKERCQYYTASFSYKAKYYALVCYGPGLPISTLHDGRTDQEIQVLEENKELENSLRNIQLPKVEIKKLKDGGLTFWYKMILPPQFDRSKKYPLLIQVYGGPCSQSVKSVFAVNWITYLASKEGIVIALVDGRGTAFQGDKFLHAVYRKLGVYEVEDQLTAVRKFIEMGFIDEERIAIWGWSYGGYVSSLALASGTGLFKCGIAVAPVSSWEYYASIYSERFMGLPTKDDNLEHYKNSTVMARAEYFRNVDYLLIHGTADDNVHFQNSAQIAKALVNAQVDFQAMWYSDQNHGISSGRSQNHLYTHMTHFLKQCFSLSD
Protocol: FAPα enzymatic exopeptidase (dipeptidase) activity assay. […] 7-Amino-4-Methylcoumarin (AMC) release was detected by measuring fluorescence at Ex/Em 380/460 nm using a Multifunction Microplate Reader (Synergy 4, Biotek). All measurements were carried out in duplicate. […] For the calculations, the average measurements from reactions containing only vehicle and substrate, without enzyme, were used as a blank and were subtracted from the rest of the measurements. Percent inhibition was calculated using the average measurements from reactions containing vehicle, enzyme, and substrate as the maximum of enzymatic activity. Measurements were performed as a single point.

[4] = target: T3, recombinant mouse DPPIV (rmDPPIV) (Mus musculus, UniProt P28843); test: DPPIV enzymatic activity assay; format: biochemical; settings: H-Gly-Pro-pNA substrate
T3 construct: purchased R&S system (so in the source)
T3 sequence (P28843 whole entry): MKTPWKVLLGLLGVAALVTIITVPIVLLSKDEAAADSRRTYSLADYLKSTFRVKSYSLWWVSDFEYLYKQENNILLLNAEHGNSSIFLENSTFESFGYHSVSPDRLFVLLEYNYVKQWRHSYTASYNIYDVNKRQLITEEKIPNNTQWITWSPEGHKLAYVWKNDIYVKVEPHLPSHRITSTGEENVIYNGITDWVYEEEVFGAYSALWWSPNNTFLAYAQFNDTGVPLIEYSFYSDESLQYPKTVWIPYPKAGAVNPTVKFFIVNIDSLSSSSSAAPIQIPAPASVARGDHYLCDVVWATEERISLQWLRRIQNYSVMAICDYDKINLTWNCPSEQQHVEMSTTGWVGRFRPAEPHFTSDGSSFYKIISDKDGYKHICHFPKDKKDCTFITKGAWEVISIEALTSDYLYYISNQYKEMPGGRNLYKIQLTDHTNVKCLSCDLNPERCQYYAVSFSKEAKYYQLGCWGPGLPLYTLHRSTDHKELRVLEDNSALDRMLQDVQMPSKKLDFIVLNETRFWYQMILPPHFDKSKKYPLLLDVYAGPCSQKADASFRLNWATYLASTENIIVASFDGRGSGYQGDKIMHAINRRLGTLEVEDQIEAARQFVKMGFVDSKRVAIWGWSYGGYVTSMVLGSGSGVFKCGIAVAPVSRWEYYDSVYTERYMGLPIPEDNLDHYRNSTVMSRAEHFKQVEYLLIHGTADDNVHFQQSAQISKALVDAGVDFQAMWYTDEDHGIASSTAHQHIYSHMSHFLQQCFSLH

[5] = target: T4, recombinant human FAPα (rhFAPα) (Homo sapiens, UniProt Q12884); test: FAPα enzymatic exopeptidase (dipeptidase) activity assay; format: biochemical; settings: 1 μM test compound; Z-Gly-Pro-AMC substrate
T4 construct: purchased R&S system (so in the source)
T4 sequence (Q12884 1-760): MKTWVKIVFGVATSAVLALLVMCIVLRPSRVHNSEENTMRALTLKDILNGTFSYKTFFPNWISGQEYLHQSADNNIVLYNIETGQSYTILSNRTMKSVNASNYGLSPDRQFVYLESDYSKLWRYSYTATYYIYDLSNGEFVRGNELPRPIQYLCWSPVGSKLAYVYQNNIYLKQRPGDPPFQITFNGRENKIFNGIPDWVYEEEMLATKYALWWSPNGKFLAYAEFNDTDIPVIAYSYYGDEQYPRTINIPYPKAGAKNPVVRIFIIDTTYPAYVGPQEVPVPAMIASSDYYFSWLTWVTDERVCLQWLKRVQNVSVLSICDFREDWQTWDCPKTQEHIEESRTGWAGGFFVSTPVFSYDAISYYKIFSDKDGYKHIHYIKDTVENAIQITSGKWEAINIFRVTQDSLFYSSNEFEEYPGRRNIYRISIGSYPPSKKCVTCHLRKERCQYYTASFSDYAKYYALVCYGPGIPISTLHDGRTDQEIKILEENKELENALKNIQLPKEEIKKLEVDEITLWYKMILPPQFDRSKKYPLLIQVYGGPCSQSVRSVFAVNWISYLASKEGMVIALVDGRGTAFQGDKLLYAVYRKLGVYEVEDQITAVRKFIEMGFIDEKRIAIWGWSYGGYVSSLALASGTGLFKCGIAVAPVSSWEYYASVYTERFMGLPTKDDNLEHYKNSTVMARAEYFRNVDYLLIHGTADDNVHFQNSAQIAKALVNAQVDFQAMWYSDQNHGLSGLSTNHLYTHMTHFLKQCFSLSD

[6] = target: T5, recombinant mouse PREP (rmPREP) (Mus musculus, UniProt Q9QUR6); test: PREP enzymatic activity assay; format: biochemical; settings: Z-Gly-Pro-AMC substrate
T5 construct: purchased R&S system (so in the source)
T5 sequence (Q9QUR6 whole entry): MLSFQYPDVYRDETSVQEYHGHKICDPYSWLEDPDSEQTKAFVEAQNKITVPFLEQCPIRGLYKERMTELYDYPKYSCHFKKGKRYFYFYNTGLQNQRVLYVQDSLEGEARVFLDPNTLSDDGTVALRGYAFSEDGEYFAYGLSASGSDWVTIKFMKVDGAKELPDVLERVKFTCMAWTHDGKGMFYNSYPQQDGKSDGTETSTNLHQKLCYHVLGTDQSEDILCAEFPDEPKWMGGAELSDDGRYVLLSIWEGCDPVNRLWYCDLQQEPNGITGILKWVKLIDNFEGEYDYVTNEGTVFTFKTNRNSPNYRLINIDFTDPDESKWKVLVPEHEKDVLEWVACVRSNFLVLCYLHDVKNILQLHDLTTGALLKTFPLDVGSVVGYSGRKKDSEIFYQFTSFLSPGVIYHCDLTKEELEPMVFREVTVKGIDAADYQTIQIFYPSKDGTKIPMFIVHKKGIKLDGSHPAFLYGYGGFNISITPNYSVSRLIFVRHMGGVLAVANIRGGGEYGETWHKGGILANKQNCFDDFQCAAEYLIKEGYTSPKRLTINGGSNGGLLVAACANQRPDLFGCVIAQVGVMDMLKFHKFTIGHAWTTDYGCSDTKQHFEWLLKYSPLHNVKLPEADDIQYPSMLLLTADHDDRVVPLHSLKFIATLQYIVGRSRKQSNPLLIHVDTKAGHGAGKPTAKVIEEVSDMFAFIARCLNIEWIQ
Protocol: 7-Amino-4-Methylcoumarin (AMC) release was detected by measuring fluorescence at Ex/Em 380/460 nm using a Multifunction Microplate Reader (Synergy 4, Biotek). All measurements were carried out in triplicate.

[7] = standing in pH 7.8; cyclization; cited from earlier work
[8] = test system: a variety of cancers; settings: Phase II, combination with standard cytotoxic chemotherapy; cited from earlier work

T1 sequence (P28843 37-760 limits assumed): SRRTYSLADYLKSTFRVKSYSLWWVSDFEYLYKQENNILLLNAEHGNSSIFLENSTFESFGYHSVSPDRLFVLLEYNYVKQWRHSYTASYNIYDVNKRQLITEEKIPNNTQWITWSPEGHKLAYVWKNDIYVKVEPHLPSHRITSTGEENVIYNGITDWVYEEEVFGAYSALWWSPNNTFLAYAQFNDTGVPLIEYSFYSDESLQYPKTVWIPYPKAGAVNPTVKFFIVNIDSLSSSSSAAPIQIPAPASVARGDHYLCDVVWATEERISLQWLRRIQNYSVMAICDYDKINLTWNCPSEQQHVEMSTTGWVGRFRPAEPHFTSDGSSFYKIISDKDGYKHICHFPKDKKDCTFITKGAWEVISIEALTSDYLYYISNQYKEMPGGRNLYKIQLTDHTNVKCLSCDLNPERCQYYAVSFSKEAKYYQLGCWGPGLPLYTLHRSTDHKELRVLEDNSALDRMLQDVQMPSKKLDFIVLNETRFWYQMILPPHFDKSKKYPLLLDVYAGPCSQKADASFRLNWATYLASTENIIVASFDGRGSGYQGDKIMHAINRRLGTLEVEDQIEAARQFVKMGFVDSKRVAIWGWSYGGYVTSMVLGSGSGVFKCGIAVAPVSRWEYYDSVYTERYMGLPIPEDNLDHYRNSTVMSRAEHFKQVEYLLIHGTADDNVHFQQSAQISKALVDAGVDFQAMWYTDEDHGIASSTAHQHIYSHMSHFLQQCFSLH

| SMILES | IC50 [1] | F (bioavailability) ([2]; PO 10 mg/kg vs IV 2 mg/kg) | AUClast ([2]; oral (PO) 10 mg/kg single dose, plasma) | rmFAPα (% exo inh @ 1 μM) [3] | IC50 [4] | rhFAPα (% exo inh @ 1 μM) [5] | IC50 [6] | stability of protease inhibitory activity [7] | clinical efficacy endpoints [8] |
| --- | --- | --- | --- | --- | --- | --- | --- | --- | --- |
| N#CC1CC(F)(F)CN1C(=O)CNC(=O)c1ccnc2ccccc12 (stereo not drawn) [Ref. Comp., reference compound] | > 10 µM | 39.7% | 1120 ng·h/mL | +++ (+++ refers to > 50% inhibition at 1 μM test compound) | > 10 µM | +++ (+++ refers to > 50% inhibition at 1 μM test compound) | > 10 µM | – | – |
| CC(C)[C@H](N)C(=O)N1CCC[C@H]1B(O)O [Val-boroPro] | – | – | – | – | – | – | – | rapidly loses protease inhibitory activity | endpoints for efficacy were not met |
